In patent US20230063457A1, “DNA-PK INHIBITING COMPOUNDS” (Provincial Health Services Authority, priority 2019, published 2023):

Experiments:
[1] = tested on: HCT116 cells; assay: Stirred cell suspension assay, release of parent inhibitor from prodrug (HCT116); type: cell-based, human; details: hypoxic conditions; 1% HCT116 cells by volume in media with 10% FBS at 37° C., FIG. 2
Method: Stirred Cell Suspension Assay
All compounds tested were dissolved in DMSO at 10 mM/L and further dilutions were made in culture medium. Final DMSO concentration was <0.3% (v/v). The human FaDu and HCT116 cells (ATCC) were cultured in MEM medium and 10% fetal calf serum (PAA). Cells were routinely maintained at densities of 0.2×10e6 cells per ml and incubated at 37° C. in a humidified 5% CO2, 95% air atmosphere. Cells were passaged twice a week, splitting back to obtain the low density. At the time of experiment, cells were trypsinized, counted and suspended at a density of 1% cells/volume in glass vials containing 2 ml stirred media and gassed at different pO2. After 30 minutes, test compounds were added at 25 μM/L and 150 μl samples were removed at intervals up to 4 hours. Each sample was split to test for (1) free drug and (2) total extraction and analysed using high performance liquid chromatography to measure the release of the parent inhibitor from the hypoxia activated prodrug.

[2] = molecular target: DNA-PK kinase (Homo sapiens, UniProt P78527); assay: Inhibition of DNA-PK kinase activity (ADP-Glo); type: biochemical; details: averaged values over all measurements on all batches; 150 μM ATP, 1 hour at 25° C.
In short: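 Enzyme preincubated 15 min with compound in 50 mM Hepes pH 7.5, 20 mM MgCl2, 10 μg/ml calf thymus DNA, 1% DMSO; reaction started with 150 μM ATP and 0.2 μg/μl DNA-PK substrate, 1 h at 25° C. ADP-Glo luminescence, blank-subtracted; IC50 from sigmoidal fit of % inhibition versus log concentration.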

[3] = molecular target: T1, Phospho-DNA-PK in FaDu Cells (Homo sapiens, UniProt P78527); assay: Effect of compounds on phospho-DNA-PK in FaDu cells (MesoScale sandwich immunoassay); type: cell-based; details: 1 hour pre-incubation, 1 μg/ml Neocarzinostatin 2 hours, averaged values, read-out: MSD FaDu IC50
T1 construct: host or cells: FaDu
Method: Effect of Compounds on Phospho-DNA-PK in FaDu Cells
All compounds tested were dissolved in DMSO and further dilutions were made in culture medium. Final DMSO concentration was 0.3% (v/v). The human FaDu cells (ATCC) were cultured in MEM medium supplemented with Glutamax and 10% fetal calf serum (PAA). Cells were routinely maintained at densities of 0.2×10^6 cells per ml at 37° C. in a humidified 5% CO2, 95% air atmosphere. Cells were passaged twice a week, splitting back to obtain the low density. Cells were seeded in 96 well plates (Corning 3904) at 1×10^6 cells per ml media in a volume of 50 μl per well. Seeded cells were incubated at 37° C. in a humidified 5% CO2, 95% air atmosphere for 24 hours. Compounds were added (25 μl) to the cells and pre-incubated for 1 hour. 1 μg/ml DNA-damaging agent Neocarzinostatin (NCS) was added (25 μl) to a final volume of 100 μl and incubated for 2 hours at 37° C. in a humidified 5% CO2, 95% air atmosphere. After this period of time plates were removed from the incubator and the 100 μl dilutions were removed from the wells gently, prior to the addition of 75 μl cold RIPA lysis buffer with protease and phosphatase inhibitors to achieve the cells lysis, followed by shaking on a plate shaker at 4° C. for 30 minutes. At the end of this incubation, lysate was assessed for phospho-DNA-PK levels by sandwich immune-assay carried out in anti-mouse antibody coated MesoScale plates. […] Signal obtained in the wells containing blank samples was subtracted from all other wells and IC50 values were determined by fitting a sigmoidal curve to % inhibition of control versus Logo compound concentration.

| conversion of prodrug to the respective parent compound [1] | IC50 [2] | IC50 [3] | Structure (SMILES) |
| --- | --- | --- | --- |
| released the respective parent compound | – | – | CC(C)n1ncc(COc2cnc3cc(N4CCOCC4)nc(O[C@H]4CC[C@@H](n5ccnc5)CC4)c3c2)c1[N+](=O)[O-] [Prodrug 15] |
| – | 198 nM | 1550 nM | c1cnc(N2CCC3(CCN(c4nc(N5CCOCC5)cc5ncccc45)C3)C2)nc1 (stereo not drawn) [Example 22] |
